Earlier results, collected in US5773459A, “Urea- and thiourea-type compounds” (Sugen, Inc., priority 1995, dated 1998).

Assays:
[1] = system: IGF-1R protein tyrosine kinase; details: Sepp-Lorenzino et al., Abstract, 1994; cited from earlier work
[2] = system: human breast cancer cells; details: Sepp-Lorenzino et al., Abstract, 1994; cited from earlier work

**Q.** Which results are given for `CO[C@H]1[C@@H](OC)C[C@H](C)[C@@H](OC)C2=CC(=O)C=C(NC(=O)/C(C)=C/C=C\[C@H](OC)[C@@H](OC(N)=O)/C(C)=C/[C@@H]1C)C2=O` [Herbimycin A]?
**A.** inhibition of the IGF-1R protein tyrosine kinase [1]: inhibit; inhibition of cellular proliferation in human breast cancer cells [2]: inhibit
